Laboratory results: US7579350B2, “Scaffolds for α-helix mimicry” (The Scripps Research Institute, priority 2005, dated 2009)

## COC(=O)c1cccc(-c2nnc(-c3ccccc3[N+](=O)[O-])cc2Cc2ccccc2)c1
  melting point: 130 °C
